In US9409884B2 (Rigel Pharmaceuticals, Inc., priority 2012, dated 2016):

Molecular target: AMPK
Experiment: AMPK activation, enzyme-linked immunosorbent assay
Assay type: biochemical
Conditions: Table 8, compounds of Table 1
How it was run: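 Read-out: ELISA, used to detect compound-driven activation of AMPK.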

EC50 | Structure (SMILES)
0.5 to 1 µM | O=C(NC1CCN(Cc2ccccc2)CC1)c1cc2cc(OC3CCN(Cc4cccc(C(F)(F)F)c4)CC3)ccc2o1 [Compound 1-73, N-(1-benzylpiperidin-4-yl)-5-(1-(3-(trifluoromethyl)benzyl)piperidin-4-yloxy)benzofuran-2-carboxamide]
1 to 5 µM | CN(C(=O)c1cc2cc(OC3CCN(c4ccc(C(F)(F)F)cc4)CC3)ccc2o1)C1CCNCC1 [Compound 1-103, N-methyl-N-(piperidin-4-yl)-5-(1-(4-(trifluoromethyl)phenyl)piperidin-4-yloxy)benzofuran-2-carboxamide]
< 0.1 µM | O=C(NC1CCN(Cc2ccc(N3CCOCC3)cc2)CC1)c1ccc(OC2CCN(c3ccc(C(F)(F)F)cc3)CC2)cn1 [Compound 1-40, N-(1-(4-morpholinobenzyl)piperidin-4-yl)-5-(1-(4-(trifluoromethyl)phenyl)piperidin-4-yloxy)picolinamide]
< 0.1 µM | N#Cc1ccc(CN2CCC(NC(=O)c3cc4ccc(OC5CCN(c6ccc(OC(F)(F)F)cc6)CC5)cc4o3)CC2)cc1 [Compound 1-89, N-(1-(4-cyanobenzyl)piperidin-4-yl)-6-(1-(4-(trifluoromethoxy)phenyl)piperidin-4-yloxy)benzofuran-2-carboxamide]
< 0.1 µM | Cc1c(C(=O)NC2CCN(Cc3ccccn3)CC2)oc2cc(OC3CCN(c4ccc(C(F)(F)F)cc4)CC3)ccc12 [Compound 1-68, 3-methyl-N-(1-(pyridin-2-ylmethyl)piperidin-4-yl)-6-(1-(4-(trifluoromethyl)phenyl)piperidin-4-yloxy)benzofuran-2-carboxamide]
< 0.1 µM | Cc1c(C(=O)NC2CCN(Cc3ccccc3C#N)CC2)oc2cc(OC3CCN(c4ccc(C(F)(F)F)cc4)CC3)ccc12 [Compound 1-67, N-(1-(2-cyanobenzyl)piperidin-4-yl)-3-methyl-6-(1-(4-(trifluoromethyl)phenyl)piperidin-4-yloxy)benzofuran-2-carboxamide]
< 0.1 µM | Cc1c(C(=O)NC2CCN(Cc3cccc(C#N)c3)CC2)oc2cc(OC3CCN(c4ccc(C(F)(F)F)cc4)CC3)ccc12 [Compound 1-66, N-(1-(3-cyanobenzyl)piperidin-4-yl)-3-methyl-6-(1-(4-(trifluoromethyl)phenyl)piperidin-4-yloxy)benzofuran-2-carboxamide]
0.1 to 0.5 µM | O=C(NC1CCN(Cc2ccccc2)CC1)c1cc2cc(OC3CCN(Cc4ccc(Cl)cc4)CC3)ccc2o1 [Compound 1-72, N-(1-benzylpiperidin-4-yl)-5-(1-(4-chlorobenzyl)piperidin-4-yloxy)benzofuran-2-carboxamide]
< 0.1 µM | O=C(NC1CCN(Cc2ccncc2)CC1)c1cc2cc(OC3CCN(c4ccc(C(F)(F)F)cc4)CC3)ccc2s1 [Compound 1-138, N-(1-(pyridin-4-ylmethyl)piperidin-4-yl)-5-(1-(4-(trifluoromethyl)phenyl)piperidin-4-yloxy)benzo [b]thiophene-2-carboxamide]

Same assay, conditions: Table 11, compounds of Table 4

EC50 | Structure (SMILES)
< 0.5 µM | N#Cc1ccc(CN2CCC(NC(=O)c3ccc(C(=O)N4CCN(Cc5ccc(F)cc5)CC4)cn3)CC2)cc1 [Compound 4-2, N-(1-(4-cyanobenzyl)piperidin-4-yl)-5-(4-(4-fluorobenzyl)piperazine-1-carbonyl)picolinamide]
1 to 5 µM | CCNS(=O)(=O)c1ccc(CN2CCN(C(=O)c3ccc(C(=O)NC4CCN(Cc5ccc(C#N)cc5)CC4)cn3)CC2)cc1 [Compound 4-17, N-(1-(4-cyanobenzyl)piperidin-4-yl)-6-(4-(4-(N-ethylsulfamoyl)benzyl)piperazine-1-carbonyl)nicotinamide]

Same assay, conditions: Table 12, compounds of Table 5

EC50 | Structure (SMILES)
< 1 µM | O=C(NC1CCN(Cc2ccccc2)CC1)c1ccc(OC2CCN(C(=O)c3ccc(C(F)(F)F)cc3)CC2)c(Cl)c1 [Compound 5-18, N-(1-benzylpiperidin-4-yl)-3-chloro-4-(1-(4-(trifluoromethyl)benzoyl)piperidin-4-yloxy)benzamide]
< 1 µM | N#Cc1ccc(CN2CCC(NC(=O)c3cccc(OC4CCN(Cc5ccc(C(F)(F)F)cc5)CC4)c3)CC2)cc1 [Compound 5-125, N-(1-(4-cyanobenzyl)piperidin-4-yl)-3-(1-(4-(trifluoromethyl)benzyl)piperidin-4-yloxy)benzamide]
< 1 µM | O=C(NC1CCN(Cc2ccncc2)CC1)c1cccc(OC2CCN(c3ccc(C(F)(F)F)cc3)CC2)c1 [Compound 5-87, N-(1-(pyridin-4-ylmethyl)piperidin-4-yl)-3-(1-(4-(trifluoromethyl)phenyl)piperidin-4-yloxy)benzamide]
< 1 µM | N#Cc1ccc(CN2CCC(NC(=O)c3cccc(O[C@@H]4CCN(Cc5ccc(C#N)c(F)c5)C[C@H]4F)c3)CC2)cc1 [Compound 5-129, 3-((3,4-trans)-1-(4-cyano-3-fluorobenzyl)-3-fluoropiperidin-4-yloxy)-N-(1-(4-cyanobenzyl)piperidin-4-yl)benzamide]
1 to 10 µM | N#Cc1ccc(CN2CCC(Oc3cccc(C(=O)NC4CCN(Cc5ccccc5)CC4)c3)CC2)cc1 [Compound 5-50, N-(1-benzylpiperidin-4-yl)-3-(1-(4-cyanobenzyl)piperidin-4-yloxy)benzamide]
< 1 µM | N#Cc1ccc(CN2CCC(NC(=O)c3cccc(OC4CCN(Cc5ccc(C#N)c(F)c5)CC4)c3)CC2)cc1 [Compound 5-120, 3-(1-(4-cyano-3-fluorobenzyl)piperidin-4-yloxy)-N-(1-(4-cyanobenzyl)piperidin-4-yl)benzamide]

Same assay, conditions: Table 13, compounds of Table 6

EC50 | Structure (SMILES)
< 0.1 µM | CS(=O)(=O)c1cccc(CN2CCN(C(=O)c3ccc4oc(C(=O)NC5CCN(Cc6cccc(OC(F)(F)F)c6)CC5)cc4c3)CC2)c1 [Compound 6-151, 5-(4-(3-(methylsulfonyl)benzyl)piperazine-1-carbonyl)-N-(1-(3-(trifluoromethoxy)benzyl)piperidin-4-yl)benzofuran-2-carboxamide]
0.1 to 1 µM | CS(=O)(=O)c1ccc(CN2CCN(C(=O)c3ccc4oc(C(=O)NC5CCN(Cc6ccc(OC(F)F)cc6)CC5)cc4c3)CC2)cc1 [Compound 6-101, N-(1-(4-(difluoromethoxy)benzyl)piperidin-4-yl)-5-(4-(4-(methylsulfonyl)benzyl)piperazine-1-carbonyl) benzofuran-2-carboxamide]
< 0.1 µM | O=C(Nc1ccc2oc(C(=O)N3CCC(Oc4ccc(C(F)(F)F)cc4)CC3)cc2c1)c1ccc(Oc2ccc(F)cc2)cc1 [Compound 6-24, 4-(4-fluorophenoxy)-N-(2-(4-(4-(trifluoromethyl)phenoxy)piperidine-1-carbonyl)benzofuran-5-yl)benzamide]
< 0.1 µM | N#Cc1ccc(CN2CCC(NC(=O)c3cc4cc(C(=O)N5CCN(c6ccc(C(F)(F)F)cc6)CC5)ccc4o3)CC2)cc1 [Compound 6-116, N-(1-(4-cyanobenzyl)piperidin-4-yl)-5-(4-(4-(trifluoromethyl)phenyl)piperazine-1-carbonyl) benzofuran-2-carboxamide]
0.1 to 1 µM | N#Cc1ccc(CN2CCC(NC(=O)c3cc4cc(NC(=O)C5CCN(Cc6ccc(OC(F)(F)F)cc6)CC5)ccc4o3)CC2)cc1 [Compound 6-46, N-(2-(1-(4-cyanobenzyl)piperidin-4-ylcarbamoyl)benzofuran-5-yl)-1-(4-(trifluoromethoxy)benzyl) piperidine-4-carboxamide]
< 0.1 µM | COc1ccc(CN2CCC(NC(=O)c3cc4cc(C(=O)N5CCN(Cc6ccc(S(=O)(=O)N7CCCC7)cc6)CC5)ccc4o3)CC2)cc1F [Compound 6-160, N-(1-(3-fluoro-4-methoxybenzyl)piperidin-4-yl)-5-(4-(4-(pyrrolidin-1-ylsulfonyl)benzyl)piperazine-1-carbonyl)benzofuran-2 - carboxamide]
1 to 10 µM | Cc1nnsc1C(=O)Nc1ccc2oc(C(=O)NC3CCN(Cc4ccc(C#N)cc4)CC3)cc2c1 [Compound 6-56, N-(2-(1-(4-cyanobenzyl)piperidin-4-ylcarbamoyl)benzofuran-5-yl)-4-methyl-1,2,3-thiadiazole-5-carboxamide]
< 0.1 µM | CS(=O)(=O)c1ccc(CN2CCN(C(=O)c3ccc4cc(C(=O)Nc5ccc(Oc6ccc(C#N)cc6)nc5)oc4c3)CC2)cc1 [Compound 6-8, N-(6-(4-cyanophenoxy)pyridin-3-yl)-6-(4-(4-(methylsulfonyl)benzyl)piperazine-1-carbonyl) benzofuran-2-carboxamide]
< 0.1 µM | O=C(NC1CCN(Cc2ccc(OC(F)(F)F)c(F)c2)CC1)c1cc2cc(C(=O)N3CCN(c4cccc(C(F)(F)F)c4)CC3)ccc2o1 [Compound 6-139, N-(1-(3-fluoro-4-(trifluoromethoxy)benzyl)piperidin-4-yl)-5-(4-(3-(trifluoromethyl)phenyl)piperazine-1-carbonyl) benzofuran-2-carboxamide]
< 0.1 µM | N#Cc1ccc(CN2CCC(NC(=O)c3cc4cc(C(=O)N5CCN(c6ccc(C#N)cc6)CC5)ccc4o3)CC2)cc1 [Compound 6-107, N-(1-(4-cyanobenzyl)piperidin-4-yl)-5-(4-(4-cyanophenyl)piperazine-1-carbonyl)benzofuran-2-carboxamide]

Same assay, conditions: Table 14, compounds of Table 7

EC50 | Structure (SMILES)
< 1 µM | COc1ccc(C(=O)C2CCN(C(=O)c3ccc(C(=O)NC4CCN(Cc5ccc(C#N)c(C)c5)C[C@H]4F)cn3)CC2)cc1 (stereo partly drawn) [Compound 7-59, N-((3,4-trans)-1-(4-cyano-3-methylbenzyl)-3-fluoropiperidin-4-yl)-6-(4-(4-methoxybenzoyl)piperidine-1-carbonyl)nicotinamide]
10 to 20 µM | CCNS(=O)(=O)c1ccc(CN2CCN(C(=O)c3ccc(C(=O)N4CCC(C(=O)c5ccc(OC)cc5)CC4)nc3)CC2)cc1 [Compound 7-91, N-ethyl-4-((4-(6-(4-(4-methoxybenzoyl)piperidine-1-carbonyl)nicotinoyl)piperazin-1-yl)methyl)benzenesulfonamide]
1 to 10 µM | N#Cc1ccc(CN2CCC(NC(=O)c3ccc(C(=O)N4CCC(Oc5ccc(S(=O)(=O)C6CC6)cc5)CC4)nc3)[C@H](F)C2)cc1 (stereo partly drawn) [Compound 7-73, N-((3,4-trans)-1-(4-cyanobenzyl)-3-fluoropiperidin-4-yl)-6-(4-(4-(cyclopropylsulfonyl)phenoxy)piperidine-1-carbonyl)nicotinamide]
